# Experimental data taken from PMC5786788, “Antimicrobial Octapeptin C4 Analogues Active against Cryptococcus Species” (Antimicrobial Agents and Chemotherapy, 2018).
# Where a SMILES comes first, the peptide text is derived from it. Bridges are numbered along the chain shown (N, C = ends). [ ]: non-standard residue; d: D form. The star is where a group is joined. Decanoyl(3R-OH) = CCCCCCC[C@@H](O)CC(=O)*; dDab = NCC[C@@H](N)C(=O)O; Dab = NCC[C@H](N)C(=O)O
# Assays:
# [1] = system: melanized and nonmelanized C. neoformans cells; assay: In vitro time course assay of melanization effect; assay type: cell-based, Cryptococcus neoformans; details: melanin induced on L-DOPA agar vs suppressed on YPD agar; PMB at 12.5 μM, octapeptin C4 at 1.56 μM; 0-8 h; two replicates
# Procedure: (A) Melanin suppressed C. neoformans. (B) Melanin induced C. neoformans. […] Samples from each flask were taken 0, 1, 2, 4, 6, and 8 h after inoculation, spread onto a YPD plate, and incubated at 30°C for 3 days, at which time the colonies were counted. The data represent the means of two replicates, and the error bars represent the SEM.
# Melanization was induced by growth on L-DOPA agar medium at 30°C and suppressed by growth on YPD agar medium at 30°C. Cells were grown over 3 days and collected, washed twice in PBS, and then resuspended in PBS at a density of 1,500 to 2,000 cells/ml. Aliquots of the cells were treated with PMB sulfate, octapeptin C4, and the octapeptin C4 derivatives P1L, P1D, P4, P3, P4L, P4D, P5, P6, P7, and P8 at the determined MICs. At 0, 1, 2, 4, 6, and 8 h after inoculation, samples of the suspension were spread onto YPD agar and incubated at 30°C for 3 days, and the colonies were counted. The assay was repeated in duplicate, and paired sample t tests were performed in GraphPad Prism v7.0.
# [2] = system: C. neoformans var. gattii; assay: organism not typed; details: no visible growth
# Procedure: (§1) The MICs of the yeast strains for PMB, PME, and octapeptin C4 and its derivatives were determined in accordance with CLSI M27-A2 guidelines using YNB (Becton Dickinson, USA) medium supplemented with 10 mM ammonium sulfate and 2% glucose, a final inoculum concentration of 1.5 × 10^3 to 2.0 × 10^3 cells/ml, and incubation at 35°C for 72 h ([39]). […] The MICs for PMB, PME, and octapeptin C4 for A. fumigatus were determined in accordance with the CLSI M38-A2 guidelines ([40]) using synthetic RPMI 1640 medium (with glutamine, without bicarbonate and with phenol red; Life Technologies, USA). The final inoculum concentration was 0.4 × 10^4 to 5 × 10^4 cells/ml, with incubation at 35°C for 48 h. […] All assays were completed in triplicate. Fluconazole was used as a positive control where the MIC was determined at both 50% growth (in accordance with CLSI M27-A2 guidelines) and when there was a “no visible growth” reading.
# [3] = system: C. neoformans var. neoformans; assay: microbe, parasite or virus in culture; details: no visible growth
# Procedure: as §1
# [4] = system: C. neoformans var. grubii; assay: organism not typed; details: no visible growth
# Procedure: The MICs of the yeast strains for PMB, PME, and octapeptin C4 and its derivatives were determined in accordance with CLSI M27-A2 guidelines using YNB (Becton Dickinson, USA) medium supplemented with 10 mM ammonium sulfate and 2% glucose, a final inoculum concentration of 1.5 × 10^3 to 2.0 × 10^3 cells/ml, and incubation at 35°C for 72 h ([39]). […] The MICs for PMB, PME, and octapeptin C4 for A. fumigatus were determined in accordance with the CLSI M38-A2 guidelines ([40]) using synthetic RPMI 1640 medium (with glutamine, without bicarbonate and with phenol red; Life Technologies, USA). The final inoculum concentration was 0.4 × 10^4 to 5 × 10^4 cells/ml, with incubation at 35°C for 48 h. […] All assays were completed in triplicate. Fluconazole was used as a positive control where the MIC was determined at both 50% growth (in accordance with CLSI M27-A2 guidelines) and when there was a “no visible growth” reading. […]
smiles,measurement,setting,value
"CCCCCCC[C@@H](O)CC(=O)N[C@H](CCN)C(=O)N[C@H]1CCNC(=O)[C@H](CC(C)C)NC(=O)[C@H](CCN)NC(=O)[C@H](CCN)NC(=O)[C@H](CC(C)C)NC(=O)[C@@H](Cc2ccccc2)NC(=O)[C@H](CCN)NC1=O [Octapeptin C4, octapeptin C4] ({Decanoyl(3R-OH)}-[dDab][Dab][Dab][dF]L[Dab][Dab]L; lactam 2-C (inferred); N-terminus assumed)",effect of melanization on fungicidal activity,[1],slightly enhanced
same,MIC,[2]; strain ATCC 24066 (NIH 18),1.56 µg/mL
same,MIC,[2]; strain ATCC 32269,3.13 µg/mL
same,MIC,[2]; strain ATCC 32608 (NIH 191),0.78 µg/mL
same,MIC,[2]; strain ATCC 32609 (NIH444),3.13 µg/mL
same,MIC,[2]; strain ATCC 34878,3.13 µg/mL
same,MIC,[2]; strain ATCC 34882,6.25 µg/mL
same,MIC,[2]; strain B5748 (VGIV HIV India),3.13 µg/mL
same,MIC,[2]; strain R266 (Vancouver Island),1.56 µg/mL
same,MIC,[2]; strain R267 (Vancouver Island),12.50 µg/mL
same,MIC,[2]; strain R268 (Vancouver Island),3.13 µg/mL
same,MIC,[2]; strain R269 (Vancouver Island),3.13 µg/mL
same,MIC,[2]; strain R270 (Vancouver Island),3.13 µg/mL
same,MIC,[3]; strain WM 01.127 (USA),1.56 µg/mL
same,MIC,[3]; strain WM 02.141 (Russia),3.13 µg/mL
same,MIC,[3]; strain WM 02.142 (Russia),1.56 µg/mL
same,MIC,[3]; strain WM 02.143 (Russia),3.13 µg/mL
same,MIC,[3]; strain WM 02.37 (Canada),1.56 µg/mL
same,MIC,[3]; strain WM 02.52 (Canada),1.56 µg/mL
same,MIC,[3]; strain WM 04.168 (Chile),1.56 µg/mL
same,MIC,"[3]; strain WM 04.171 (Thailand, environmental)",1.56 µg/mL
same,MIC,"[3]; strain WM 05.467 (Brazil, environmental)",1.56 µg/mL
same,MIC,[3]; strain WM 05.515 (Peru),1.56 µg/mL
same,MIC,"[3]; strain WM 09.109 (Italy, environmental)",1.56 µg/mL
same,MIC,[3]; strain WM 09.112 (USA),1.56 µg/mL
same,MIC,[3]; strain WM 10.119 (Australia),1.56 µg/mL
same,MIC,[3]; strain WM 629 (Australia),3.13 µg/mL
same,MIC,[3]; strain WM 1706 (Argentina),1.56 µg/mL
same,MIC,[3]; strain WM 1740 (Chile),3.13 µg/mL
same,MIC,"[3]; strain WM 2207 (USA, environmental)",1.56 µg/mL
same,MIC,[3]; strain WM 2242 (USA),1.56 µg/mL
same,MIC,[3]; strain WM 2530 (USA),3.13 µg/mL
same,MIC,[4]; strain 486 (USA),3.13 µg/mL
same,MIC,"[4]; strain 488 (AIDS+, pre-HAART USA)",1.56 µg/mL
same,MIC,[4]; strain 490 (USA),1.56 µg/mL
same,MIC,[4]; strain 496 (USA),1.56 µg/mL
same,MIC,[4]; strain 500 (USA),1.56 µg/mL
same,MIC,[4]; strain 502 (ARR3+ USA),3.13 µg/mL
same,MIC,[4]; strain 505 (India),1.56 µg/mL
same,MIC,[4]; strain 507 (India),1.56 µg/mL
same,MIC,[4]; strain 512 (India),3.13 µg/mL
same,MIC,[4]; strain 516 (India),3.13 µg/mL
same,MIC,[4]; strain 518 (VNI India),1.56 µg/mL
same,MIC,[4]; strain 522 (India),3.13 µg/mL
same,MIC,[4]; strain 525 (India),1.56 µg/mL
same,MIC,[4]; strain 1188 (Japan lung),3.13 µg/mL
same,MIC,[4]; strain 1189 (USA BAL/HIV),1.56 µg/mL
same,MIC,[4]; strain 1194 (Italy),1.56 µg/mL
same,MIC,[4]; strain 1196 (Botswana CSF/AIDS),3.13 µg/mL
same,MIC,[4]; strain 1197 (Botswana CSF/AIDS),3.13 µg/mL
same,MIC,[4]; strain 1199 (Uganda CSF/HIV+ VNII),1.56 µg/mL
same,MIC,[4]; strain H99O (lab strain),1.56 µg/mL
